Measurements from patent US9161924B2, “Factor IXa inhibitors” (Merck Sharp & Dohme Corp., priority 2011, dated 2015).
Where a name gives a salt, the structure may show the parent alone.

Molecular target: human factor IXa (Homo sapiens (Human), UniProt P00740)
Assay: Factor IXa enzyme assay (inhibitory activity against factor IXa)
Type: biochemical
Details: substrate SPECTROFLUOR FIXa 100 μM, factor IXa 2.0 μg/ml, 60 minutes at room temperature, fluorescence
Description: Determination of Inhibitory Activity Against Factor IXa
Inhibitory activity against factor IXa was tested using the substrate SPECTROFLUOR FIXa (American Diagnostica Inc.; 500 West Avenue, Stamford, Conn. 06902 USA; Pr. No. 299F) and human factor IXa (American Diagnostica Inc.; Pr. No. 449b). Test substances dissolved in buffer A (50 mM α,α,α-tris (hydroxymethyl)methylamine (Tris), 100 mM NaCl, 5 mM CaCl2, 15% (v/v) ethylene glycol, pH 8.0) were mixed with factor IXa (2.0 μg/ml final concentration). The enzyme reaction was started by addition of SPECTROFLUOR FIXa (100 μM final concentration). After incubation for 60 minutes at room temperature, the reaction was stopped by the addition of 20% (v/v) acetic acid solution, and then fluorescence value measured (Excitation Wavelength:355 nm, Emission Wavelength; 460 nm) in a microtiter plate reader (ARVO 1420 Multilabel Counter; PerkinElmer).
IC50 was calculated from a dilution series of the test substance with the aid of the software, Symix Assay Explorer (Symyx Technologies, Inc.).

human factor IXa, sequence (P00740 227-461): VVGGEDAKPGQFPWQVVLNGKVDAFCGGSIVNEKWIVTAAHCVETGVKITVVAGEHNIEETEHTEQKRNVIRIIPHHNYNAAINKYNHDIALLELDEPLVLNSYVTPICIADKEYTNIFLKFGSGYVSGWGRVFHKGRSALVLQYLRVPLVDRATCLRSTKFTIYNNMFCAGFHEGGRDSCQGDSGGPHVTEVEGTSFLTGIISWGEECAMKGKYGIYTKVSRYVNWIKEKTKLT
human factor IXa, sequence (P00740 47-191 partner): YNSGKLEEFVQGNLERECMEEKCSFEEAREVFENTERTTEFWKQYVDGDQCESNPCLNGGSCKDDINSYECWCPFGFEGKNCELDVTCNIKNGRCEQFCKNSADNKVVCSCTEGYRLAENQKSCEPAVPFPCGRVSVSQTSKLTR

| SMILES | IC50 [nM] |
| --- | --- |
| N=C(N)c1ccc(NC(=O)C(O)c2cccc(-c3ccc(OC(F)(F)F)cc3)c2)cc1 (stereo not drawn) [Compound 13, N-(4-carbamimidoylphenyl)-2-hydroxy-2-(4′-(trifluoromethoxy)biphenyl-3-yl)acetamide] | 450 |
| Nc1nccc2cc(NC(=O)C(O)c3cccc(-c4ccc(OC(F)(F)F)cc4)c3)ccc12 (stereo not drawn) [Compound 22, N-(1-aminoisoquinolin-6-yl)-2-hydroxy-2-(4′-(trifluoromethoxy)biphenyl-3-yl)acetamide] | 760 |
| CC(C)(C)c1ccc(-c2cccc(C(O)C(=O)Nc3ccc4c(N)nccc4c3)c2)cc1 (stereo not drawn) [Compound 42, N-(1-aminoisoquinolin-6-yl)-2-(4′-tert-butylbiphenyl-3-yl)-2-hydroxyacetamide hydrochloride] | 695 |
| CC(C)(C)c1ccc(-c2cccc(C(O)C(=O)Nc3ccc(CN)cc3)c2)cc1 (stereo not drawn) [Compound 52, N-(4-(aminomethyl)phenyl)-2-(4′-tert-butylbiphenyl-3-yl)-2-hydroxyacetamide hydrochloride] | 1450 |

Further lines, results first:

| IC50 [nM] | SMILES |
| --- | --- |
| 440 | N=C(N)c1ccc(NC(=O)C(O)c2cccc(-c3ccc(OC(F)(F)F)cc3)c2)cc1 (stereo not drawn) [Compound 9, N-(4-carbamimidoylphenyl)-2-hydroxy-2-(4′-(trifluoromethoxy)biphenyl-3-yl)acetamide] |
| 160 | CC(C)(C)c1ccc(-c2cccc(C(O)C(=O)Nc3ccc(C(=N)N)cc3)c2)cc1 (stereo not drawn) [Compound 37, 2-(4′-tert-butylbiphenyl-3-yl)-N-(4-carbamimidoylphenyl)-2-hydroxyacetamide hydrochloride] |
